The text below walks through data of ChEMBL document CHEMBL1177844 (Eur J Med Chem, 2010).

By pIC50 is commonly meant the IC50 on a negative log10 scale, so that one unit is a factor of ten. Read a low pIC50 as a high IC50.

The nature of the assay: Inhibition of ROCK.
In turn, `CC(C)CCCN1CCCC(Nc2cccc3cnccc23)C1` (stereo not drawn) gave a pIC50 of 7.
The molecule `c1ccc(CN2CCCC(Nc3cccc4cnccc34)C2)cc1` (stereo not drawn) came in with a negative-log IC50 (pIC50) of 6.7.
Then `c1cc2[nH]ncc2cc1NC1CCNCC1`, with 6.52.
Then `CNC1CCC(Nc2cccc3cnccc23)CC1` (stereo not drawn), with 6.7.
As for `O=C(COc1c(Cl)cccc1Cl)Nc1ccc2[nH]ncc2c1`, the figure is 6; as for `CCN1CCC(Nc2ccc3[nH]ncc3c2)CC1`, 6.15.
In the case of `O=C(Nc1ccc2[nH]ncc2c1)C1CCCCC1`, the pIC50 is given as 6.3.
`O=C(CC1CCCCC1)Nc1ccc2[nH]ncc2c1` returned a negative-log IC50 (pIC50) of 6.05.
As for `O=C(COc1c(Cl)cc(F)cc1Cl)Nc1ccc2[nH]ncc2c1`, the figure is 6.3.
Molecule `c1cc2[nH]ncc2cc1NC1CCNC1` (stereo not drawn) showed a pIC50 of 7.
`Fc1cc2[nH]ncc2cc1NC1CCCN(Cc2ccccc2)C1` (stereo not drawn) registered a pIC50 of 6.4.
As to `Fc1ccc(CN2CCC(Nc3cccc4cnccc34)C2)cc1` (stereo not drawn), the pIC50 worked out at 7.02.
For the molecule `CCCN1CCCC(Nc2ccc3[nH]ncc3c2)C1` (stereo not drawn), the pIC50 is listed as 6.11.
As for `O=C(NC1CCN(Cc2ccccc2)CC1)c1ccc2[nH]ncc2c1`, the figure is 6.27.
As for `Clc1cccc(CN2CCC(Nc3cccc4cnccc34)C2)c1` (stereo not drawn), the figure is 7.19; as for `Nc1ccc(CN2CCC(Nc3cccc4cnccc34)C2)cc1` (stereo not drawn), 6.63; as for `c1ccc(CN[C@H]2CC[C@H](Nc3ccc4[nH]ncc4c3)CC2)cc1`, 6.28.
Then `CN(CCNc1ccc2[nH]ncc2c1)Cc1ccccc1`, with 5.1; and `c1c[nH]c(CN2CCCC(Nc3ccc4[nH]ncc4c3)C2)c1` (stereo not drawn), with 7.96; and `CCCN[C@H]1CC[C@@H](Nc2cccc3cnccc23)CC1`, with 6.74.
As for `c1cc(N[C@H]2CC[C@H](NC3CC3)CC2)c2ccncc2c1`, the negative logarithm of the IC50 (pIC50) amounted to 7.15.
As for `c1ccc(CCN[C@H]2CC[C@H](Nc3cccc4cnccc34)CC2)cc1`, the figure is 6.39; as for `c1ccc(CCN[C@H]2CC[C@@H](Nc3cccc4cnccc34)CC2)cc1`, 6.24.
As for `CCCN1CCC(Nc2cccc3cnccc23)CC1`, the figure is 6.46.
In turn, `c1ccc(CN2CCC(Nc3cccc4cnccc34)CC2)cc1` came in with a pIC50 of 6.85.
As for `Clc1ccccc1CN1CCCC(Nc2cccc3cnccc23)C1` (stereo not drawn), the figure is 6.68; as for `Fc1ccc(CN2CCCC(Nc3ccc4[nH]ncc4c3)C2)cc1` (stereo not drawn), 7.6; as for `Fc1ccc(CN2CCCC(Nc3ccc4[nH]ncc4c3)C2)cc1F` (stereo not drawn), 8.
Then `Nc1ccc(CN2CCCC(Nc3ccc4[nH]ncc4c3)C2)cc1` (stereo not drawn), with 8.
As for `Clc1ccccc1CN1CCC(Nc2ccc3[nH]ncc3c2)CC1`, the figure is 6.36; as for `Clc1cccc(CN2CCC(Nc3ccc4[nH]ncc4c3)CC2)c1`, 6.54.
On to `c1ccc(CN2CCCC(Nc3ccc4[nH]ncc4c3)C2)nc1` (stereo not drawn), for which the negative logarithm of the IC50 (pIC50) turned out to be 6.62.
`c1cncc(CN2CCCC(Nc3ccc4[nH]ncc4c3)C2)c1` (stereo not drawn) registered a pIC50 of 7.14.
In turn, `c1ccc(CN2CCCC(Nc3ccc4[nH]ncc4c3)C2)cc1` (stereo not drawn) registered a pIC50 of 7.7.
Then `O=C(NCc1ccc(Cl)cc1Cl)Nc1ccc2[nH]ncc2c1`, with 6.66; and `c1coc(CN2CCCC(Nc3ccc4[nH]ncc4c3)C2)c1` (stereo not drawn), with 6.74; and `O=C(NCc1c(Cl)cccc1Cl)Nc1ccc2[nH]ncc2c1`, with 7.7.
As for `Clc1ccc(CN2CCC(Nc3ccc4[nH]ncc4c3)CC2)cc1`, the figure is 6.54.
In turn, `O=C(NCc1ccccc1)Nc1ccc2[nH]ncc2c1` displayed a negative logarithm of the IC50 (pIC50) of 6.59.
As for `c1ccc(CN2CCC(Oc3ccc4[nH]ncc4c3)CC2)cc1`, the figure is 7.
Then `O=C(NCc1c(F)cccc1F)Nc1ccc2[nH]ncc2c1`, with 7.07; and `c1ccc(CN2CCCC(Oc3ccc4[nH]ncc4c3)C2)cc1` (stereo not drawn), with 8; and `COc1ccc(CN2CCCC(Nc3ccc4[nH]ncc4c3)C2)cc1` (stereo not drawn), with 7.8.
Molecule `CCCN[C@H]1CC[C@H](Nc2cccc3cnccc23)CC1` displayed a pIC50 of 6.74.
As for `Cc1n[nH]c2ccc(NC3CCCN(Cc4ccccc4)C3)cc12` (stereo not drawn), the figure is 6.82; as for `Nc1cccc(CN2CCC(Nc3cccc4cnccc34)C2)c1` (stereo not drawn), 6.56; as for `Clc1ccc(CN2CCC(Nc3cccc4cnccc34)C2)cc1` (stereo not drawn), 7.19.
Turning to `c1cc(N[C@H]2CC[C@@H](NC3CC3)CC2)c2ccncc2c1`, the negative-log IC50 (pIC50) is recorded as 6.74.
As for `CC(C)CCN1CCCC(Nc2cccc3cnccc23)C1` (stereo not drawn), the figure is 6.57; as for `CC(C)CN1CCC(Nc2cccc3cnccc23)CC1`, 6.68.
In turn, `c1ccc(CN2CCC(Nc3ccc4[nH]ncc4c3)C2)cc1` (stereo not drawn) returned a negative logarithm of the IC50 (pIC50) of 7.49.
In the case of `Fc1cccc(F)c1CN1CCC(Nc2cccc3cnccc23)C1` (stereo not drawn), the negative logarithm of the IC50 (pIC50) was found to be 7.12.
Then `Nc1ccccc1CN1CCC(Nc2cccc3cnccc23)C1` (stereo not drawn), with 6.69.
As for `Cc1ccc(CN2CCCC(Nc3ccc4[nH]ncc4c3)C2)cc1` (stereo not drawn), the figure is 8.05; as for `Clc1ccccc1CN1CCC(Nc2ccc3[nH]ncc3c2)C1` (stereo not drawn), 7.35.
Turning to `Clc1cccc(CN2CCCC(Nc3ccc4[nH]ncc4c3)C2)c1` (stereo not drawn), the negative-log IC50 (pIC50) came out at 7.72.
In turn, `Clc1cccc(CN2CCCC(Nc3cccc4cnccc34)C2)c1` (stereo not drawn) returned a pIC50 of 6.58.
The molecule `COc1cc(CN2CCCC(Nc3ccc4[nH]ncc4c3)C2)cc(OC)c1` (stereo not drawn) registered a pIC50 of 7.1.
As for `O=[N+]([O-])c1ccc(CN2CCCC(Nc3ccc4[nH]ncc4c3)C2)cc1` (stereo not drawn), the figure is 7.06.
`Clc1ccccc1CN1CCC(Nc2cccc3cnccc23)C1` (stereo not drawn) returned a negative-log IC50 (pIC50) of 7.
Then `c1ccc(CN[C@H]2CC[C@@H](Nc3ccc4[nH]ncc4c3)CC2)cc1`, with 6.49; and `Nc1cccc(CN2CCCC(Nc3ccc4[nH]ncc4c3)C2)c1` (stereo not drawn), with 7.46; and `Clc1ccccc1CN1CCCC(Nc2ccc3[nH]ncc3c2)C1` (stereo not drawn), with 7.89.
Then `O=C(Nc1ccc2[nH]ncc2c1)C1CCCN(Cc2ccccc2)C1` (stereo not drawn), with 7.74; and `Clc1ccc(CN2CCCC(Nc3ccc4[nH]ncc4c3)C2)cc1` (stereo not drawn), with 7.96.
Then `O=C(Nc1ccc2[nH]ncc2c1)C1CCN(Cc2ccccc2)CC1`, with 6.87; and `CC(C)CCN1CCCC(Nc2ccc3[nH]ncc3c2)C1` (stereo not drawn), with 6.47; and `Nc1ccccc1CN1CCCC(Nc2ccc3[nH]ncc3c2)C1` (stereo not drawn), with 7.07.
